Patent US7125679B2, “Methods to screen peptide libraries using minicell display” (Children's Medical Center Corporation, priority 2001, dated 2006)

Assays:
β3 = molecular target: T1, β3 (Homo sapiens, UniProt P05106); assay: β3 attachment; format: cell-based
T1 sequence (P05106 27-788): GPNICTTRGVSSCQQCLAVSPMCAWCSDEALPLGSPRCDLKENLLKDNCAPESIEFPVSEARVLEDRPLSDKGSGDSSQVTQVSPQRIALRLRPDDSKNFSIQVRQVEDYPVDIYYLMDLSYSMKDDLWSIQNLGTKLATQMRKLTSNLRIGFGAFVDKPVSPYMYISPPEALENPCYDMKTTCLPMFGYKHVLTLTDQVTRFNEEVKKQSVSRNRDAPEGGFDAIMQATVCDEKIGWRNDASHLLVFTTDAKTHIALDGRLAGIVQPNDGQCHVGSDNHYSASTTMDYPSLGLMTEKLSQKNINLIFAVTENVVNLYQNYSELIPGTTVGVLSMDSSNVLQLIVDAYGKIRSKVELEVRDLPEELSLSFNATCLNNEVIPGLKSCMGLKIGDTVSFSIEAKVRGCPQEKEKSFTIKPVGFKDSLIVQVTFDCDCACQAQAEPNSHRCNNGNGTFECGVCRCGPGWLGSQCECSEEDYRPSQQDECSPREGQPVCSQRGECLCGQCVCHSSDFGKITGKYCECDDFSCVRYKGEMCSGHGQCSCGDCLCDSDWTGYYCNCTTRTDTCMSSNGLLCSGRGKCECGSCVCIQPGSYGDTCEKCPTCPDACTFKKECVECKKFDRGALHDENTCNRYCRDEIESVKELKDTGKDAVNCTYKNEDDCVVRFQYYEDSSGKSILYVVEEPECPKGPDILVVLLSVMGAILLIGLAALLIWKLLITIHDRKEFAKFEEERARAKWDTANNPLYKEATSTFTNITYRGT

β integrin = β integrin binding
angiogenesis = assay: Anti-angiogenic activity
alpha4 integrin = molecular target: T2, alpha4 integrin (Homo sapiens, UniProt P13612); assay: alpha4 integrin binding
T2 sequence (P13612 34-1032): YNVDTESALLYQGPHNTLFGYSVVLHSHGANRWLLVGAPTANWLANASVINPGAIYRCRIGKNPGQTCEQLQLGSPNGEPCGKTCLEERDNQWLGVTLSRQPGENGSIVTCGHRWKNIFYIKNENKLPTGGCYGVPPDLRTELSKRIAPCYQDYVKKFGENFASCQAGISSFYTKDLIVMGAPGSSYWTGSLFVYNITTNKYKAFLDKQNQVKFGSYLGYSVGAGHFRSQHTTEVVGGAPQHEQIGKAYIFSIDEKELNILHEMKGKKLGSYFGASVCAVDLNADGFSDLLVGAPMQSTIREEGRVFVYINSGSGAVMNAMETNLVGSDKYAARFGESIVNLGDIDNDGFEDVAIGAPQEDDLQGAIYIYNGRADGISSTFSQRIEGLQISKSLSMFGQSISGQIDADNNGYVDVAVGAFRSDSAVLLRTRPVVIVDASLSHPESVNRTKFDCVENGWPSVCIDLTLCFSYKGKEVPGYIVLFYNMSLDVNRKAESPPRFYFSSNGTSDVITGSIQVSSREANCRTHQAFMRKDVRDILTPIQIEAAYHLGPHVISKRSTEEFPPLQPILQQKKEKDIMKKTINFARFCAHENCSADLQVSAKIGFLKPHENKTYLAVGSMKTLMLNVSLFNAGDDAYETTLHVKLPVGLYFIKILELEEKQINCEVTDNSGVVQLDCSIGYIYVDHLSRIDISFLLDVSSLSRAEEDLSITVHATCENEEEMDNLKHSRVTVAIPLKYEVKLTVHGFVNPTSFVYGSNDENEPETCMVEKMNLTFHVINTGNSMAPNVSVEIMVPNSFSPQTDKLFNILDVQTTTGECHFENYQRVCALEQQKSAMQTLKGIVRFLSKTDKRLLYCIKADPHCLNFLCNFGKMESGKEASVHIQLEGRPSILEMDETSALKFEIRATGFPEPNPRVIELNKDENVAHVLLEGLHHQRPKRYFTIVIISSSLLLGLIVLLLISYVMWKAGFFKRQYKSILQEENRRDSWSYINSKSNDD

[1] = test system: neutrophils, endothelium, fibrosarcomas melanoma; assay: Attachment of neutrophils, endothelium, fibrosarcomas, melanoma; format: cell-based
cell-cell adhesion = assay: Cell-cell adhesion; format: cell-based
Endothelial cell = Endothelial cell attachment; format: cell-based
cell entry of peptides = assay: Cell entry of peptides; format: cell-based
collagenase = assay: Collagenase induction; format: cell-based
fibroblast = assay: Fibroblast attachment; format: cell-based
tumor cells [2] = assay: Apoptosis of tumor cells; format: cell-based
Excerpt: Many cells may undergo programmed cell death which is a genetically mediated form of self destruction. This phenomenon is commonly referred to in the art as apoptosis. Frequently, apoptotic cells may be recognized by changes in their biochemical, morphological and molecular features. Morphological changes include, but are not limited to, cell shape change, cell shrinkage, cell detachment, apoptotic bodies, nuclear fragmentation, nuclear envelope changes and loss of cell surface structures. Biochemical changes may include proteolysis, protein cross linking, DNA denaturation, cell dehydration, intranucleosomal cleavage and a rise in free calcium ions. Such characteristics are easily identifiable by methods well established in the art. Peptides isolated by the disclosed mini-cell display method are tested for their effects on such physiological and biochemical processes.

melanoma cell = assay: Melanoma cell attachment; format: cell-based
Fibronectin receptor = Fibronectin receptor (Homo sapiens, UniProt P05556+P08648); assay: Fibronectin receptor binding
alphavbetax = assay: Cell attachment, alphavbetax specific; format: cell-based
tumor cells [3] = assay: Homotypic aggregation of tumor cells; format: cell-based

Sequence of Fibronectin receptor (P08648 42-894 limits assumed): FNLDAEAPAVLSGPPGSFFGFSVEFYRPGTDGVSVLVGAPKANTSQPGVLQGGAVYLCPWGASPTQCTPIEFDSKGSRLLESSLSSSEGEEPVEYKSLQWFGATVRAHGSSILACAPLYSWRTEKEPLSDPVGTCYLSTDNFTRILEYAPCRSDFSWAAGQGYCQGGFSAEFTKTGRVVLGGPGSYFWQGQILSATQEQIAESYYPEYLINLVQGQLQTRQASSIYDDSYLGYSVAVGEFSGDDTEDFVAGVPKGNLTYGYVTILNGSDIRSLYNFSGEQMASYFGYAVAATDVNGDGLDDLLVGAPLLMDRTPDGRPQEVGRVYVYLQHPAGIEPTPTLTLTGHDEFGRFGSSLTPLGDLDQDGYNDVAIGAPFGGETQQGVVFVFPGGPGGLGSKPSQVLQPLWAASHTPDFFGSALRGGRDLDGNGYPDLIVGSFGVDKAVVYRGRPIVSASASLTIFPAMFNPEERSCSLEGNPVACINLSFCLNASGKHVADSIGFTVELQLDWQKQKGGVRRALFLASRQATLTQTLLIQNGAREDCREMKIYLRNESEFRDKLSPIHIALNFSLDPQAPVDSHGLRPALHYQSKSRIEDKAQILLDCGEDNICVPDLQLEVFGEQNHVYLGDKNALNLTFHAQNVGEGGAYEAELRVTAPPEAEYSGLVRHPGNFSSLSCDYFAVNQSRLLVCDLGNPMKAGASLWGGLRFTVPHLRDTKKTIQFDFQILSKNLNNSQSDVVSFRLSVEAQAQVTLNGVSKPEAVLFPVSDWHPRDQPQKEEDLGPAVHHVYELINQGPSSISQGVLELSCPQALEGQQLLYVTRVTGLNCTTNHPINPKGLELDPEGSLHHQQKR
Sequence of Fibronectin receptor (P08648 895-1049 limits assumed): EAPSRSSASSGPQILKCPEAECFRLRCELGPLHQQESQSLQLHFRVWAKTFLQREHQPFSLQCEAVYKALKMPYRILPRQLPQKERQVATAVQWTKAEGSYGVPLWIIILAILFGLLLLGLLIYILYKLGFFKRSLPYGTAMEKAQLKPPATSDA
Sequence of Fibronectin receptor (P05556 21-798): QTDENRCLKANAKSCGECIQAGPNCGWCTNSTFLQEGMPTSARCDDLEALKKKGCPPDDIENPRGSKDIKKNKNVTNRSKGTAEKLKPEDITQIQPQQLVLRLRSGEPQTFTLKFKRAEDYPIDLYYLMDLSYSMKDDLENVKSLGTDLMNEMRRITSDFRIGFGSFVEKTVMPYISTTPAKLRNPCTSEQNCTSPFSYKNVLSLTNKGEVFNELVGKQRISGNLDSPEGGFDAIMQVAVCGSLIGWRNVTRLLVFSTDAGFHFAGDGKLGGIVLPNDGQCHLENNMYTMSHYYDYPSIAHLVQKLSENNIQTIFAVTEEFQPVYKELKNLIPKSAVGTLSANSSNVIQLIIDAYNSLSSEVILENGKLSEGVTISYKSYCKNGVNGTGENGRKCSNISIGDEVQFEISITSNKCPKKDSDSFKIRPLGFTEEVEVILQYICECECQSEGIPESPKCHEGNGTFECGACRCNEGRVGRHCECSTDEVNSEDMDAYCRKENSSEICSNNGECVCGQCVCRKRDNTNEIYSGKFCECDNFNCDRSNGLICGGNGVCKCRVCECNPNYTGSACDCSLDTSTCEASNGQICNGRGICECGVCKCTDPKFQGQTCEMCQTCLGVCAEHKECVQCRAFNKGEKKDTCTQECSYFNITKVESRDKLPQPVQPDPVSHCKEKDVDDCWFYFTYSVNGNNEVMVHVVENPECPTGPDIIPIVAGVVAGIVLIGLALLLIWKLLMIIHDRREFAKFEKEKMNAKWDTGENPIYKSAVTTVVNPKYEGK

With HDRREFAKFQSERSRA (beta 3 attachment.) as the substance, how does the “FUNCTIONAL ACTIVITY: β3 attachment” value (β3) read?
Its value is “β3 attachment”.

For “DSVAYGLKSRSK (Inhibitor of heparin binding.)”, which “FUNCTIONAL ACTIVITY: Inhibits heparin binding” value (Heparin binding) is on record?
The value was “Inhibits heparin binding”.

For “TPVVPTVDTYDGRGDSLAY (beta integrin binding.)”, which “FUNCTIONAL ACTIVITY: β integrin binding” value (β integrin) is on record?
Its value is “β integrin binding”.

With QVGLKPLV (Anti-angiogenic.) as the substance, how does the “FUNCTIONAL ACTIVITY: Anti-angiogenic” value (angiogenesis) read?
The value was “Anti-angiogenic”.

Which “FUNCTIONAL ACTIVITY: Inhibits heparin binding” value (Heparin binding) does the source give for “DSVAYGLKSK (Inhibitor of heparin binding.)” here?
The value was “Inhibits heparin binding”.

With “WTGGDDSGSPSSPS (Inhibits alpha 4 integrin binding.)” as the substance, how does the “FUNCTIONAL ACTIVITY: Inhibits alpha4 integrin binding” value (alpha4 integrin) read?
Its value is “Inhibits alpha4 integrin”.

With “KGMNYTVR (Inhibits neutrophils, endothelium, fibro- sarcomas, melanoma attachment.)” as the substance, how does the “FUNCTIONAL ACTIVITY: Inhibits, neutrophils, endothelium, fibrosarcomas melanoma attachment” value [1] read?
The value was “Inhibits, neutrophils,”.

With KKAKKSRRS (Anti-adhesion (cell-cell).) as the substance, how does the “FUNCTIONAL ACTIVITY: Anti-adhesion (cell-cell)” value (cell-cell adhesion) read?
The value was “Anti-adhesion (cell-cell)”.

For “SDQDNNGKGSHES (Endothelial cell attachment.)”, which “FUNCTIONAL ACTIVITY: Endothelial cell attachment” value (Endothelial cell) is on record?
Its value is “Endothelial cell attachment”.

With “CVVVLVL (Promotes cell entry of peptides.)” as the substance, how does the “FUNCTIONAL ACTIVITY: Promotes cell entry of peptides” value (cell entry of peptides) read?
The value was “Promotes cell entry of peptides”.

For “QSWKKQGSPSSPQRRSKGGRKP (beta 3 attachment.)”, which “FUNCTIONAL ACTIVITY: β3 attachment” value (β3) is on record?
Its value is “β3 attachment”.

Which “FUNCTIONAL ACTIVITY: inhibits collagenase induction” value (collagenase) does the source give for “PNGRGESLAY (Inhibits fibroblast attachment, inhibits collagenase induction.)” here?
Its value is “inhibits collagenase induction”.

What about the “FUNCTIONAL ACTIVITY: Inhibits fibroblast attachment” value (fibroblast) of the same substance?
Its value is “Inhibits fibroblast attachment,”.

For KKGKKSKRS (Anti-adhesion (cell-cell).), which “FUNCTIONAL ACTIVITY: Anti-adhesion (cell-cell)” value (cell-cell adhesion) is on record?
The value was “Anti-adhesion (cell-cell)”.

For ATWLPPR (Anti-angiogenic.), which “FUNCTIONAL ACTIVITY: Anti-angiogenic” value (angiogenesis) is on record?
Its value is “Anti-angiogenic”.

For “KRSR: bioactive peptide isolated by minicell display (Apoptotic to tumor cells.)”, which “FUNCTIONAL ACTIVITY: Apoptotic to tumor cells” value (tumor cells [2]) is on record?
The value was “Apoptotic to tumor cells”.

Which “FUNCTIONAL ACTIVITY: Anti-angiogenic” value (angiogenesis) does the source give for TPTVRGAAGSGNQN (Anti-angiogenic) here?
The value was “Anti-angiogenic”.

For “DRYLKFRPV (Inhibits melanoma cell attachment.)”, which “FUNCTIONAL ACTIVITY: Inhibits melanoma cell attachment” value (melanoma cell) is on record?
Its value is “Inhibits melanoma cell”.

For “AADVESPS (Inhibits alpha 4 integrin binding.)”, which “FUNCTIONAL ACTIVITY: Inhibits alpha4 integrin binding” value (alpha4 integrin) is on record?
Its value is “Inhibits alpha4 integrin”.

For “LDSAS: bioactive peptide isolated by minicell display (Inhibits alpha 4 integrin binding.)”, which “FUNCTIONAL ACTIVITY: Inhibits alpha4 integrin binding” value (alpha4 integrin) is on record?
Its value is “Inhibits alpha4 integrin”.

Which “FUNCTIONAL ACTIVITY: Inhibits alpha4 integrin binding” value (alpha4 integrin) does the source give for “EPEESDVGGAADYP (Inhibits alpha 4 integrin binding.)” here?
The value was “Inhibits alpha4 integrin”.

For “QESPSGTDLLVAGSSP (Inhibits alpha 4 integrin binding.)”, which “FUNCTIONAL ACTIVITY: Inhibits alpha4 integrin binding” value (alpha4 integrin) is on record?
The value was “Inhibits alpha4 integrin”.

For “LVPSSKGRGDYLAQSQP (Fibronectin receptor binding collagenase induction.)”, which “FUNCTIONAL ACTIVITY: Fibronectin receptor binding” value (Fibronectin receptor) is on record?
The value was “Fibronectin receptor binding”.

What about the “FUNCTIONAL ACTIVITY: collagenase induction” value (collagenase) of the same substance?
The value was “collagenase induction”.

Which “FUNCTIONAL ACTIVITY: Cell attachment/alphavbetax specific” value (alphavbetax) does the source give for “TPFIPTESANDGRGDSVAW (Cell attachment/ alpha v beta x specific.)” here?
The value was “Cell attachment/a1phavbetax”.

For “HKFVHWKKPVLPSQNNQ (Inhibits melanoma cell attachment.)”, which “FUNCTIONAL ACTIVITY: Inhibits melanoma cell attachment” value (melanoma cell) is on record?
The value was “Inhibits melanoma cell”.

With “DSVVYGLRSK (Inhibitor of heparin binding.)” as the substance, how does the “FUNCTIONAL ACTIVITY: Inhibits heparin binding” value (Heparin binding) read?
Its value is “Inhibits heparin binding”.

With “SDV: bioactive peptide isolated by minicell display (Inhibits alpha 4 integrin binding.)” as the substance, how does the “FUNCTIONAL ACTIVITY: Inhibits alpha4 integrin binding” value (alpha4 integrin) read?
The value was “Inhibits alpha4 integrin”.

Which “FUNCTIONAL ACTIVITY: Fibronectin receptor binding” value (Fibronectin receptor) does the source give for “GRGDNPS (Fibronectin receptor binding collagenase induction.)” here?
The value was “Fibronectin receptor binding”.

And the “FUNCTIONAL ACTIVITY: collagenase induction” value (collagenase)?
Its value is “collagenase induction”.

For HDRKEFAKFEEEERARA (beta 3 attachment.), which “FUNCTIONAL ACTIVITY: β3 attachment” value (β3) is on record?
Its value is “β3 attachment”.

With HDRKEVAKFEAERSKA (beta 3 attachment.) as the substance, how does the “FUNCTIONAL ACTIVITY: β3 attachment” value (β3) read?
Its value is “β3 attachment”.

With “DGGRGDSLGWYRRGRGGARRSKAKKAAAKNNQKSEPLIGRKKT (Apoptotic to tumor cells.)” as the substance, how does the “FUNCTIONAL ACTIVITY: Apoptotic to tumor cells” value (tumor cells [2]) read?
Its value is “Apoptotic to tumor cells”.

Which “FUNCTIONAL ACTIVITY: Anti-adhesion (cell-cell)” value (cell-cell adhesion) does the source give for “RRSRSSTGKKQKSSQSRKTA (Anti-adhesion (cell-cell))” here?
The value was “Anti-adhesion (cell-cell)”.

For “HGRFILPWWYAFSPS (Inhibits homotypic aggregation of tumor cells.)”, which “FUNCTIONAL ACTIVITY: Inhibit homotypic aggregation of tumor cells” value (tumor cells [3]) is on record?
The value was “Inhibit homotypic aggregation”.

With “SDQDQDGDGHQDS (Endothelial cell attachment.)” as the substance, how does the “FUNCTIONAL ACTIVITY: Endothelial cell attachment” value (Endothelial cell) read?
Its value is “Endothelial cell attachment”.

With “LDSPPAALS (Inhibits alpha 4 integrin binding.)” as the substance, how does the “FUNCTIONAL ACTIVITY: Inhibits alpha4 integrin binding” value (alpha4 integrin) read?
Its value is “Inhibits alpha4 integrin”.

For DKKELAKFQAERSAAS (beta 3 attachment.), which “FUNCTIONAL ACTIVITY: β3 attachment” value (β3) is on record?
Its value is “β3 attachment”.
